Experiment [1] has as its system SNORF25 receptor. Description: cAMP release in Cos-7 cells transiently transfected with SNORF25. As to conditions: Cos-7 cells transiently transfected with SNORF25; preliminary, data not shown. Format: cell-based. As to the method:
(§1) COS-7 cells are grown on 150 mm plates in DMEM with supplements (Dulbecco's Modified Eagle Medium with 10% bovine calf serum, 4 mM glutamine, 100 units/ml penicillin/100 μg/ml streptomycin) at 37° C., 5% CO2. Stock plates of COS-7 cells are trypsinized and split 1:6 every 3–4 days.
(§2) A typical protocol for the electroporation method as applied to Cos-7 cells is described as follows. Cells to be used for transfection are split 24 hours prior to the transfection to provide flasks which are subconfluent at the time of transfection. The cells are harvested by trypsinization resuspended in their growth media and counted. 5×10^6 cells are suspended in 300 μl of DMEM and placed into an electroporation cuvette. 8 μg of receptor DNA plus 8 μg of any additional DNA needed (e.g. G protein expression vector, reporter construct, antibiotic resistance marker, mock vector, etc.) is added to the cell suspension, the cuvette is placed into a BioRad Gene Pulser and subjected to an electrical pulse (Gene Pulser settings: 0.25 kV voltage, 950 μF capacitance). […]
(§3) The receptor-mediated stimulation or inhibition of cyclic AMP (cAMP) formation may be assayed in cells expressing the receptors. […] The plates are stored at 4° C. for 15 min, and the cAMP content in the stopping solution is measured by radioimmunoassay. Radioactivity may be quantified using a gamma counter equipped with data reduction software. […]

The test system of experiment [2] is mock-transfected Cos-7 cells. Description: cAMP in mock-transfected Cos-7 cells. Format: cell-based. As to conditions: preliminary. As to the method:
as §1, §2, §3

A further experiment has as its system untransfected CHO cells. Description: cAMP release in native untransfected CHO cells. Format: cell-based, Chinese hamster. As to conditions: FIG. 11A. The protocol: (§4) CHO cells are grown on 150 mm plates in HAM's F-12 medium with supplements (10% bovine calf serum, 4 mM L-glutamine and 100 units/ml penicillin/100 μg/ml streptomycin) at 37° C., 5% CO2. Stock plates of CHO cells are trypsinized and split 1:8 every 3–4 days.
The receptor-mediated stimulation or inhibition of cyclic AMP (cAMP) formation may be assayed in cells expressing the receptors. According to one method, cells are plated in 96-well plates or other vessels and preincubated in a buffer such as HEPES buffered saline (NaCl (150 mM), CaCl2 (1mM), KCl (5 mM), glucose (10 mM)) supplemented with a phosphodiesterase inhibitor such as 5 mM theophylline, with or without protease inhibitor cocktail (For example, a typical inhibitor cocktail contains 2 μg/ml aprotinin, 0.5 mg/ml leupeptin, and 10 μg/ml phosphoramidon.) for 20 min at 37° C., in 5% CO2. Test compounds are added with or without […] and incubated for an additional 10 min at 37° C. The medium is then aspirated and the reaction stopped by the addition of 100 mM HCl or other methods. The plates are stored at 4° C. for 15 min, and the cAMP content in the stopping solution is measured by radioimmunoassay. Radioactivity may be quantified using a gamma counter equipped with data reduction software. Specific modifications may be performed to optimize the assay for the receptor or to alter the detection method of cAMP. […]

In experiment [3] the test system is isolated rat pancreatic islets. As to conditions: cited from earlier work.
The next experiment has as its target PAF receptors (Homo sapiens, UniProt P25105). As to conditions: cloned or native PAF receptors; cited from earlier work.
Experiment [4] deals with T1, SNORF25 (Homo sapiens, UniProt Q8TDV5).
T1 sequence (Q8TDV5 1-335): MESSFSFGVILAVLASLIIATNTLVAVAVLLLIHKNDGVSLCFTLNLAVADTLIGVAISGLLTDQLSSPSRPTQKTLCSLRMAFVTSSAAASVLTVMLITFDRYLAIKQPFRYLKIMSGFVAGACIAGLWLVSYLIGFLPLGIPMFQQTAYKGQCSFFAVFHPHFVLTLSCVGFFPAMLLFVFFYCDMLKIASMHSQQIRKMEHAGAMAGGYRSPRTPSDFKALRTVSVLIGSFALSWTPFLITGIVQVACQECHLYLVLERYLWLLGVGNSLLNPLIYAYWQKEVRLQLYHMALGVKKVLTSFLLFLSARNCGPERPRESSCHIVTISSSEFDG
Description: Stimulation of cAMP release by CHO cells stably expressing hSNORF25 receptors. It is filed as cell-based. More on the design: expressed in transfected cells. As to conditions: for stimulation of cAMP: 10 μM, data not shown; for % of PAF(C18) Response: maximum response as % of maximum response produced by PAF(C18) (taken as 100%); for EC50: mean ± S.E.M., at least 3 experiments, CHO cells stably expressing hSNORF25. As to the method: as §4
Heterologous DNA can be stably incorporated into host cells, causing the cell to perpetually express a foreign protein. Methods for the delivery of the DNA into the cell are similar to those described above for transient expression but require the co-transfection of an ancillary gene to confer drug resistance on the targeted host cell. The ensuing drug resistance can be exploited to select and maintain cells that have taken up the DNA. An assortment of resistance genes are available including but not restricted to neomycin, kanamycin, and hygromycin. For the purposes of studies concerning the receptor of this invention, stable expression of a heterologous receptor protein is typically carried out in, mammalian cells including but not necessarily restricted to, CHO, HEK293, LM(tk−), etc.
(§5) The receptor-mediated stimulation or inhibition of cyclic AMP (cAMP) formation may be assayed in cells expressing the receptors. According to one method, cells are plated in 96-well plates or other vessels and preincubated in a buffer such as HEPES buffered saline (NaCl (150 mM), CaCl2 (1mM), KCl (5 mM), glucose (10 mM)) supplemented with a phosphodiesterase inhibitor such as 5 mM theophylline, with or without protease inhibitor cocktail (For example, a typical inhibitor cocktail contains 2 μg/ml aprotinin, 0.5 mg/ml leupeptin, and 10 μg/ml phosphoramidon.) for 20 min at 37° C., in 5% CO2. Test compounds are added with or without […] and incubated for an additional 10 min at 37° C. The medium is then aspirated and the reaction stopped by the addition of 100 mM HCl or other methods. The plates are stored at 4° C. for 15 min, and the cAMP content in the stopping solution is measured by radioimmunoassay. Radioactivity may be quantified using a gamma counter equipped with data reduction software. Specific modifications may be performed to optimize the assay for the receptor or to alter the detection method of cAMP.
as §5, with “According” for “The receptor-mediated stimulation or inhibition of cyclic AMP (cAMP) formation may be assayed in cells expressing the receptors. According”, “a second” for “one”, “washed 2 times with” for “plated in 96-well plates or other vessels and preincubated in a buffer such as”, “saline, as described above, and incubated overnight. On the day of the experiment, cells are washed 2 times with HEPES” for “saline (NaCl (150 mM), CaCl2 (1mM), KCl (5 mM), glucose (10 mM))”
Several other closely related analogues of PAF namely Lyso-PAF with different carbon chains also stimulated cAMP.

In experiment [5] the target is T2, SNORF25 receptor (Rattus norvegicus, UniProt Q7TQN8).
T2 construct: the entire coding region was amplified from Rin14b cell line cDNA and rat genomic DNA; expressed in transfected cells; host or cells: CHO cells, transient (electroporation)
T2 sequence (Q7TQN8 with tags, fused parts or gaps limits assumed): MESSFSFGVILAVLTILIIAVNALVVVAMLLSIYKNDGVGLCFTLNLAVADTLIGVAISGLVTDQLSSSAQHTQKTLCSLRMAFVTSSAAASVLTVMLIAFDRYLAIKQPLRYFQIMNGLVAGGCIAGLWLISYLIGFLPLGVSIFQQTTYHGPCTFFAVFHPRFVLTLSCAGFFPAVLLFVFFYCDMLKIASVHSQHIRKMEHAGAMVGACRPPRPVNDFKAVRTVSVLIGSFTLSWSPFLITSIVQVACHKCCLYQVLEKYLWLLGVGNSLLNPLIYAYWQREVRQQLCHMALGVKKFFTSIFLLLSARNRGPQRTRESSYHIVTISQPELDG
Description: cAMP release in CHO cells transiently transfected with SNORF25. It is filed as cell-based. As to conditions: 10 μM; SNORF25-transfected cells (FIG. 6). The protocol:
as §4, §2, §3

Experiment [6] has as its target T1, SNORF25. Description: CFTR Cl- currents in Xenopus oocytes co-injected with SNORF25 and CFTR mRNA. Format: cell-based. Also noted: from linearized plasmids or PCR products containing the complete coding region of the genes; expressed in transfected cells; host or cells: Xenopus laevis oocytes injected with SNORF25 mRNA (with or without CFTR mRNA). As to conditions: 10 μM; for CFTR current response: oocytes with SNORF25 and CFTR mRNA (FIG. 12A). The protocol:
Oocytes are harvested from Xenopus laevis and injected with mRNA transcripts as previously described (Quick and Lester, 1994; Smith et al., 1997). The test receptor of this invention and Gα subunit RNA transcripts are synthesized using the T7 polymerase (“Message Machine,” Ambion) from linearized plasmids or PCR products containing the complete coding region of the genes. Oocytes are injected with 10 ng synthetic receptor RNA and incubated for 3–8 days at 17 degrees. Three to eight hours prior to recording, oocytes are injected with 500 pg promiscuous Gα subunits mRNA in order to observe coupling to Ca^++ activated Cl^− currents.
Each of the compounds was tested at 10 μM. Oocytes expressing SNORF25 generated inward Cl^− currents, consistent with CFTR activation, in response to all four of the ligands.
The activity of SNORF25 was therefore tested in oocytes co-injected with mRNA encoding SNORF25 and mRNA encoding CFTR. In 17 out of 39 of these oocytes an inward Cl^− current (105±20 nA) was measured in response to the application of 10 μM all-trans-retinoic acid (See FIGS. 9A–9C and 10).

For experiment [7], the target named is B2 adrenergic receptor (B2AR) (Homo sapiens, UniProt P07550). As to conditions: 1 μM; holding potential −70 mV (FIG. 9C).
Chain of B2 adrenergic receptor (B2AR) (P07550 whole entry, species assumed): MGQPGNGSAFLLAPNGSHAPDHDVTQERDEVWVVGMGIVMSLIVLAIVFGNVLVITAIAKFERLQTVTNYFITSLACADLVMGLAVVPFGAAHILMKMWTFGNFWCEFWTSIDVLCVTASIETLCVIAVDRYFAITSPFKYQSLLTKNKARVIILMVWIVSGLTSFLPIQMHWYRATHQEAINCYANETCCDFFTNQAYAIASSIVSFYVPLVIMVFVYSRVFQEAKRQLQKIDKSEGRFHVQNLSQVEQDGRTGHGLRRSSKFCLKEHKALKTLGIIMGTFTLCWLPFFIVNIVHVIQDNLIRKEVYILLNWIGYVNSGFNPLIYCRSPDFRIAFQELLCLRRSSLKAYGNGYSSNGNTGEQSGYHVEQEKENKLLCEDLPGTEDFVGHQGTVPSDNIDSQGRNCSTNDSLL

The term EC50 denotes the concentration giving half of the maximal effect.

Chain of PAF receptors (P25105 whole entry): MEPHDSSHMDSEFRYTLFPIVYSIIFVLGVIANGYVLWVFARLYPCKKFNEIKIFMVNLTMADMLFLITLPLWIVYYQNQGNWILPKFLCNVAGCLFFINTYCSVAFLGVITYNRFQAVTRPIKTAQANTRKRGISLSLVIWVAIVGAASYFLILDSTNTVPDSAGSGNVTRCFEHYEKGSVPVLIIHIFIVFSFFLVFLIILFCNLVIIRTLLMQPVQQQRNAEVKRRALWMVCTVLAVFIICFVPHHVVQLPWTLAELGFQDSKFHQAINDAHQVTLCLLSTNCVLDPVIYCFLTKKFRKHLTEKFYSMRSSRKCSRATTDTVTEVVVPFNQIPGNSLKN

On to “1-O-alkyl-2-acetyl-sn-glycero-3-phosphocholine [PAF]”, for which the “stimulation of cAMP levels” value with SNORF25 receptor [1] is on record as 4–5 fold. Also, in [2], the “stimulation of cAMP levels in mock-transfected cells” value was “not mock-transfected cells”. Besides, the “cAMP response in untransfected CHO cells” value in the experiment on untransfected CHO cells was “No response”. For the same compound, in experiment [3], the “potency in inducing insulin secretion relative to lyso-PAF” value is “nearly equipotent to lyso-PAF”. The “potency / activation at typical PAF receptors” value on PAF receptors is given as “nanomolar potencies”. Moreover, on SNORF25 [4] (CHO cells expressing SNORF25 (FIG. 11A)), the “Emax of cAMP response” value is listed as 200–400 % basal.
Consider `CCCCC/C=C\C/C=C\C/C=C\C/C=C\CCCC(=O)O` [AA], for which the “stimulation of cAMP” value on SNORF25 [4] was “no stimulation of cAMP”.
Take `CC1=C(/C=C/C(C)=C/C=C/C(C)=C/CO)C(C)(C)CCC1` [All-trans retinol, all-trans-retinol]: the “increase in cAMP” value at SNORF25 receptor [5] is given as “failed to produce an increase in cAMP”.
For `CC1=C(/C=C/C(C)=C/C=C/C(C)=C/C=C/C=C(C)/C=C/C=C(C)/C=C/C2=C(C)CCCC2(C)C)C(C)(C)CCC1` [Atb carotene], the “stimulation of cAMP” value on SNORF25 [4] is given as “no stimulation of cAMP”.
Turning to `CCCCCCCCCCCCCCCCOC[C@@H](O)COP(=O)([O-])OCC[N+](C)(C)C` [Lyso-PAF(C16)], on SNORF25 [4], the “% of PAF(C18) Response” value is reported as 120% and the response was half-maximal at 3.48 ± 1.13 µM (EC50). The “inward Cl- current amplitude” value on SNORF25 [6] (oocytes with SNORF25 and CFTR mRNA) came out at 61.7±7.8 nA. The CFTR current response result at SNORF25 [6] is listed as “robust responses”.
As for `CCCCCCCCCCCCCCCCCCOC[C@@H](O)COP(=O)([O-])OCC[N+](C)(C)C` [Lyso-PAF(C18)], on SNORF25 [4], the “% of PAF(C18) Response” value turned out to be 70% and the concentration giving a half-maximal response (EC50) amounted to 5.45 ± 2.63 µM. The CFTR current response result on SNORF25 [6] was “robust responses”.
Turning to `CNC[C@H](O)c1ccc(O)c(O)c1` [epinephrine], the CFTR current result in experiment [7] is given as “evokes a similar current”.
`CC(C)=CCC/C(C)=C/C=C/C(C)=C/C=C/C(C)=C/C=C/C=C(C)/C=C/C=C(C)/C=C/C=C(\C)CCC=C(C)C` [licopene]: the “stimulation of cAMP” value on SNORF25 [4] is given as “no stimulation of cAMP”.
Take `CCCCCCCCCCCCCCCCOC[C@@H](O)COP(=O)([O-])OCC[N+](C)(C)C` [lyso-PAF]: the EC50 in experiment [3] (basal (1.7 mM) and stimulatory (16.7 mM) glucose, read-out: EC50 of insulin release) was ~100 µM. Besides, at PAF receptors, the “potency / activation at typical PAF receptors” value is given as “not activated”.
Turning to `C=C1CC[C@H](O)C/C1=C/C=C1\CCC[C@]2(C)[C@@H]([C@H](C)CCCC(C)C)CC[C@@H]12` [vitamin D3], the “stimulation of cAMP” value at SNORF25 [4] was “no stimulation of cAMP”.
As for PAF(C16), the “% of PAF(C18) Response” value on SNORF25 [4] was 110%. Moreover, at SNORF25 [6], the CFTR current response result is “robust responses”.
Turning to vitamin E, the “stimulation of cAMP” value at SNORF25 [4] is “no stimulation of cAMP”.

These data come from patent US7416848B2, “DNA encoding SNORF25 receptor” (H. Lundbeck A/S, priority 1999, dated 2008).
